# Data taken from US20190284192A1, “NITROGENOUS MACROCYCLIC COMPOUND, PREPARATION METHOD THEREFOR, PHARMACEUTICAL COMPOSITION AND APPLICATION THEREOF” (LUOXIN PHARMACEUTICAL (SHANGHAI) CO., LTD., priority 2016, published 2019).
# Where two headings read alike, the source gives them in different places.
# Columns and labels:
# [1] = system: MV-4-11 subcutaneous xenograft tumor; experiment: Anti-tumor efficacy in vivo, MV-4-11 subcutaneous xenograft model; design: species or system BALB/c nude mice; details: intragastric QD*14
# Protocol: According to the growth of the cells, the treatment was passaged twice a week. When the cells are in the exponential growth phase, the cells are collected, counted, and inoculated.
# Experimental protocol: 0.2 mL of cell suspension containing about 5×10^MV-4-11 cells (cell suspended in IMDM medium and added with 50% Matrigel) was inoculated subcutaneously into the right back of each mouse. Group administration was initiated when the average tumor volume reached approximately 136.94 mm^3 (day 15 post inoculation). Grouping method: Animals were weighed before dosing and tumor volume was measured. Grouping designed based on tumor volume.
# The experimental indicator is to investigate whether tumor growth can be inhibited, delayed or cured. Tumor diameters were measured with vernier calipers three times a week. The formula for calculating tumor volume is: V=0.5×a×b^2, a and b represent the long and short diameters of the tumor, respectively. The antitumor effect of the compound was evaluated by T/C (%). T/C %=TRTV/CRTV×100% (TRTV: treatment group RTV; CRTV: negative comparative group RTV). The relative tumor volume RTV is calculated as RTV=Vt/V1. Where V1 is the measured tumor volume at the time of group administration (i.e., Day 1), and Vt is the tumor volume at each measurement.
# The tumor volume and tumor size were analysed by statistical software. GraphPad Prism software was used for analyzation, p<0.05 is considered to have significant difference, p<0.01 is considered to have extremely significant difference.
# Two-way Anova Bonferroni post-test is used to compare the tumor volume difference between the control group and the treatment group.
# [2] = Body weight of MV-4-11 tumor-bearing mice during treatment; type: in vivo; details: intragastric QD*14, ABBV-075 3, GSK762 15, 4009 10 mg/kg
# Protocol: The preparation and any revision of this experimental protocol are carried out in accordance with the evaluation criteria of the “Institute for Animal Care and Use (IACUC)” of Shanghai Chempartner Chemical Research Co., Ltd. The use and welfare of laboratory animals are carried out in accordance with the provisions of the Association for Assessment and Accreditation of Laboratory Animal Care (AAALAC). Animals are monitored daily for health and death. Routine examinations include observations of the effects of the test substance and the drug on the daily behavior of the animal such as behavioral activities, intake of water and feeds, weight change (three weights measured weekly), appearance signs or other anormal circumstance. The number of animal deaths and side effects in the group were recorded based on the number of animals in each group.
# [3] = molecular target: T1, BRD4 (BD1) (Homo sapiens, UniProt O60885); experiment: BRD4 (BD1) bromodomain binding, HTRF; details: 2 h incubation at r.t.
# T1 construct: Each member comprises two tandem bromodomains (BD1 and BD2) for recognizing the acetylated lysine residues
# [4] = molecular target: T2, BRD4 (BD2) (Homo sapiens, UniProt O60885); experiment: BRD4 (BD2) bromodomain binding, HTRF; details: 2 h incubation at r.t.
# T2 construct: Each member comprises two tandem bromodomains (BD1 and BD2) for recognizing the acetylated lysine residues
# [5] = system: MV-4-11 cells; experiment: Inhibitory effect on MV-4-11 cells (CellTiter-Glo); type: cell-based; details: Homo sapiens, read-out: MV-4-11
# Protocol: 2. The cells were transferred to a 15 mL centrifuge tube, after centrifuged at 1000 rpm for 5 min, the supernatant was discarded;
# 3. The complete medium (IMDM+10% FBS) was added, then blown and patted into single cell suspension, counted by Vi-cell cytometer, the cell suspension was adjusted to desired cell density by the complete medium.
# 4. The cells were inoculated into a 96 well plate, the cell number was 15000/well at 100 μL per well, 100 μL complete medium was added into the black control.
# 2. Intermediate plate areparation
# 6. XLfit was used for data processing. Inhibition rate %=(d−c)/(d−b)×100, while d is the signal value of the DMSO treated group, c is the signal value of the compound treated group, b is signal value of the blank control that only containing medium and DMSO without cells. The data was fitted using the f(x)205[fit=(A+((B−A)/(1+((C/x)^∧D))))] equation in the XLfit software.
# [6] = Metabolic stability in human liver microsomes; type: in vitro ADME; details: human liver microsomes 0.5 mg/mL, NADPH, 37° C.; for CLint scaled at 1 µM: pH 7.4, read-out: HLM_CLint
# Protocol: (§1) Determinations of the metabolic stability of the compound from the above embodiments, the detailed operation steps are as followed:
# (§2) 1. Preparation of buffer C:
# (§3) Buffer A: 1.0 L of 0.1 M potassium dihydrogen phosphate buffer (containing 1.0 mM EDTA);
# (§4) Buffer B: 1.0 L of 0.1 M dipotassium hydrogen phosphate buffer (containing 1.0 mM EDTA);
# (§5) Buffer C: 500 mL Buffer B was titrated with Buffer A to pH 7.4.
# (§6) 2. 10 mM stock solution preparation:
# (§7) 10 mM test compound: A certain amount of the test compound was weighed and dissolved in DMSO.
# (§8) 10 mM control: 5.455 mg of ketanserin dissolved in 1 mL DMSO.
# (§9) 3. Preparation of the drug solution:
# (§10) 500 μM solution: 5 μL of 10 mM stock solution (see step 2) was added into 95 μL ACN;
# (§11) 1.5 μM dosing solution (dissolved in liver microsome solution):
# (§12) 18.75 μL of 20 mg/mL liver microsomes was added into 479.75 μL of Buffer C, then 1.5 μL of 500 μM solution was added and mixed gently by shaking.
# (§13) 4. Preparation of 6 mM NADPH solution:
# (§14) 15 mg NADPH was weighted, then added into 3 mL of buffer C to prepare a 6 mM NADPH solution.
# (§15) 5. 30 µL of 1.5 μM dosing solution (see step 3) was added into the wells of the 96-well plate set at different time points (0 minutes, 5 minutes, 15 minutes, 30 minutes, 45 minutes), number of dulplicate sample is 2.
# (§16) 6. Preparation of a 0 minutes sample: 135 μL ACN (with internal standard) was added to the 0 minutes well, followed by 15 µL of 6 mM NADPH solution.
# (§17) 7. The 96-well plate containing 1.5 μM dosing solution and NADPH solution were preheated in a 37° C. water bath for 5 minutes.
# (§18) 8. The 15 µL of 6 mM NADPH solution preheated was added into the wells set to 5 minutes, 15 minutes, 30 minutes, 45 minutes, then the reaction was initiated and started counting the time.
# (§19) 10. The sample was vortexed for 10 min, and then centrifuged for 15 minutes on a centrifuge (Thermo Multifuge×3R) using 5594×g.
# (§20) 11. 50 μL of the supernatant was taken from the centrifuged sample, transferred to a 96-well sample plate to which 100 μL of ultrapure water had already been added, mixed, and finally sent to LC-MS/MS for analysis.
# (§21) Half time (T1/2)=0.693/K (K is the rate constant obtained by linear regression of the logarithm of the concentration as vertical coordinates and the culturing time as the abscissa)
# (§22) 2. According to the equation formula bellow, Excel was used to plot the compound content versus reaction time, as well as half life calculation (min)
# (§23) Y=(Y0−Plateau)×e^(−K*X)+Plateau
# (§24) Y0 represents the compound content at 0 minutes; Y represents the compound content; X represents the time point; K represents degration rate constant of the compound; Plateau represents the lowest possible content of the compound (defined herein as 0).
# [7] = Metabolic stability in mouse liver microsomes; type: in vitro ADME; details: mouse liver microsomes 0.5 mg/mL, NADPH, 37° C.; for CLint scaled at 1 µM: pH 7.4, read-out: MLM_CLint
# Protocol: as §1, §2, §3, §4, §5, §6, §7, §8, §9, §10, §11, §12, §13, §14, §15, §16, §17, §18, §19, §20, §21, §22, §23, §24
# [8] = Cassette pharmacokinetic study, intravenous or oral administration; type: in vivo, female Balb/c nude mice; design: Cmax: unit not given here; details: for F: PO 2 mg/kg vs IV 0.5 mg/kg; for Cmax / AUC(0-inf) / AUC(0-t) / MRT inf / clearance / half-life / Vd / Tmax: N = 3, cassette; for AUC(0-inf) / AUC(0-t) / MRT inf / clearance / half-life / Vd / Tmax: female, Balb/c nude, mouse, whole blood; for half-life: read-out: Terminal t1/2 (converted); for Vd: read-out: Vss
# Protocol: Determinations of the pharmacokinetic parameters of ABBV-075 (standard control), 4009, 4018, 4026 and 4031 in femal Balb/c nude mice after intravenous or oral administration.
# Detailed Experimental Steps:
# 6 female Balb/c nude mice weighing 18-20 g were divided into two groups (3/group), after fixation, the intravenous group: 0.5 mg/kg (5 mL/kg) injected by caudal vein (N=3); the oral group: 2 mg/kg (10 mL/kg) by intragastic administration (N=3). Approximately 20 μL of blood was drawn behind the eyeball at the sampling point and placed in EDTA-2K tube. The sample was immediately diluted with 40 μL of double distilled water and vortexed until well mixed. Blood samples were stored at approximately −70° C. and submitted to the BA group for analysis (LC/MS). 30 μL of blood sample was added with 200 μL of H2O and 30 μL of IS dexamethasone, 200 ng/mL), layered by LLE, and 1 mL of MTBW was added as an organic extraction solvent. The mixture was vortexed for 10 min and centrifuged at 10,000 rpm for 5 min. 850 μL of the supernatant was evaporated under nitrogen until desiccated. The desiccated extract was re-mixed with 150 μL of 50% methanol, vortexed for 2 min, and then analyzed by injecting 5 μL of the supernatant into LC-MS/MS.
# 2. Intravenous/oral administration formula: 5% DMSO, 95% (10% HP-3-CD in water)
# 3. PK calculation parameter used non-compartment model, WinNonlin 6.4 software calculation
# [9] = system: SU-DHL-6 cells; experiment: Inhibitory effect on SU-DHL-6 cells (CellTiter-Glo); type: cell-based; details: Homo sapiens, SU-DHL-6, 72 h, read-out: SU-DHL-6
# Protocol: Determinations of the inhibition of the compounds from the above embodiments against SU-DHL-6 cells, the detailed operation steps are as followed:
# The 1st Day: Seed the Cells on the Plate
# 1. The cells were verified that they were in good conditions by observation under microscope;
# 2. The cells were transferred to a centrifuge tubes, after centrifuged at 1000 rpm for 5 min, the supernatant was discarded;
# 3. The complete substrate (1640+10% FBS) was added, then blown and patted into single cell suspension, counted by Vi-cell cytometer, the cell suspension was adjusted to desired cell density by the complete medium.
# 4. The cells were inoculated into a 96 well plate, the cell number was 12000/well at 100 μL per well, 100 μL complete medium was added into the black control;
# 5. 37° C., 5% CO2 culture overnight.
# The 2nd Day: Addition of the Drugs
# 1. 1000× Compound Plate Preparation
# 1.1. The test compound was prepared into 10 mM working solution by using DMSO. Then the STS was prepared into 2 mM working solution by using DMSO.
# 1.2. In the round bottom 96 wells plate, the column 2 of row A to H was added into 60 μL 10 mM test compound (or STS) working solution, columns 3-11 were added into 40 μL DMSO, 20 μL drug solution was pipetted from the column 2 to the column 3, blown and patted for a homogeneous mixture; then 20 μL solution was pipetted from the column 3 to the column 4, blown and patted for a homogeneous mixture, sequently, the drug was diluted by 3 times, 10 concentrations in total. The columns 1 and 12 were supplemented with 40 μL of DMSO.
# 2. Intermediate plate preparation
# A sterile V-bottom 96 deep well plate was used and in each well, 495 μL FBS-free PRMI 1640 medium was added, then 5 μL of the diluted compound (or DMSO) in the 1000× compound plate was pipetted into corresponding position of the V-bottom 96 well plate, blown and patted evenly.
# 3.1. The cell plate was taken out from the incubator and was observed under microscope. The diluted compound or DMSO in the intermediate plate was added into the cell plate, 11 μL each well.
# 3.2. The cell was continued to be cultured at 37° C., 5% CO2 for 72 hours.
# The 5th Day: CellTiter-Glo Detection of the Cell Activity
# 1. The CellTiter-Glo buffer and the reaction substrate were taken out from the refrigerator, after balanced to r.t., the buffer was poured into a brown bottle containing the substrate, the bottle was upside down to have the substrate powder sufficientaly dissolved.
# 2. The cell was observed under microscope; the cell plate was balanced to r.t.
# 3. The prepared CellTiter-Glo was added into the 96 well plate, at 100 μL/well.
# 4. The cell plate was placed on a shaker for 10 min, followed by standing at r.t. for 10 min.
# 5. A white seal film was attached to the bottom of the well plate, and the chemiluminescence signal of each well was detected by the Enspire microplate detector.
# 6. XLfit was used for data processing. Inhibition rate %=(d-c)/(d-b)×100, while d is the signal value of the DMSO treated group, c is the signal value of the compound treated group, b is signal value of the blank control that only containing medium and DMSO without cells. The data was fitted using the f (x)205[fit=(A+((B−A)/(1+((C/x)^∧D))))] equation in the XLfit software.
# [10] = MV4-11, 72 hours, CellTiter-Glo
SMILES,IC50 [3],IC50 [4],"IC50 [5, 10]",HLM_T1/2 [6],CLint scaled at 1 µM [6],MLM_T1/2 [7],CLint scaled at 1 µM [7],F [8],Cmax ([8]; PO 2 mg/kg),AUC(0-inf) ([8]; IV 0.5 mg/kg),AUC(0-t) ([8]; IV 0.5 mg/kg),MRT inf ([8]; IV 0.5 mg/kg),clearance ([8]; IV 0.5 mg/kg),half-life ([8]; IV 0.5 mg/kg),Vd ([8]; IV 0.5 mg/kg),AUC(0-inf) ([8]; PO 2 mg/kg),AUC(0-t) ([8]; PO 2 mg/kg),Tmax ([8]; PO 2 mg/kg),half-life ([8]; PO 2 mg/kg),other results
CCNC(=O)C[C@@H]1N=C(c2ccc(Cl)cc2)c2cc(OC)ccc2-n2c(C)nnc21 [GSK762],–,–,–,–,–,–,–,–,–,–,–,–,–,–,–,–,–,–,–,"anti-tumor effect on the MV-4-11 cell xenograft tumor mouse model ([1]; ABBV-075 3 mg/kg, GSK762 15 mg/kg, 4009 10 mg/kg): no significant anti-tumor effect; Average tumor weight, 15th day of treatement ([1]; ABBV-075 3, GSK762 15, 4009 10 mg/kg): 0.522 ± 0.11 g; Average RCBW, Treatment end Day 15 ([2]; relative body weight change vs Day 1): 5.07%; Average body weight, Treatment end Day 15 ([2]; x ± SEM): 21.86 ± 0.38 g; Average body weight, Treatment start Day 1 ([2]; x ± SEM): 20.82 ± 0.40 g"
"CCS(=O)(=O)Nc1ccc2c(c1)-c1cn(C)c(=O)cc1CN=C2c1ccc(F)cc1 [Compound 4018, N-(7-(4-fluorophenyl)-2-methyl-3-oxo-3,5-dihydro-2H-benzo[c]pyrido[3,4-e]azapin-10-yl)ethanesulfonamide]",3 nM,2 nM,5 nM,1043.26 min,1.67 mL/min/kg,352.12 min,15.5 mL/min/kg,12.2%,41.9,201 ng·h/mL,199 ng·h/mL,0.59 h,41.8 mL/min/kg,0.685 h,1.51 L/kg,98.1 ng·h/mL,89.7 ng·h/mL,0.667 h,2.18 h,–
"Cc1sc2c(c1C)C(c1ccc(Cl)cc1)=N[C@@H](CC(=O)OC(C)(C)C)c1nnc(C)n1-2 [(+)-JQ1, reference compound]",–,–,–,–,–,–,–,–,–,–,–,–,–,–,–,–,–,–,–,"IC50 ([5]; MV4-11, 72 h): 248 nM; IC50 [9]: 198 nM"
"CCS(=O)(=O)Cc1ccc2c(c1)-c1nn(C)c(=O)cc1C(C)N=C2c1ccc(F)cc1 (centres unmarked) [Compound 4081, 10-((Ethylsulfonyl)methyl)-7-(4-flurophenyl)-2,5-dimethyl-2,5-dihydro-3H-benzo[c]pyridazino[3,4-e]azepin-3-ketone]",6 nM,3 nM,30 nM,2952.57 min,0.59 mL/min/kg,∞,–,–,–,–,–,–,–,–,–,–,–,–,–,–
"CCS(=O)(=O)Nc1cc2c(cc1Cl)C(c1ccc(F)cc1)=NCc1cc(=O)n(C)cc1-2 [Compound 4031, N-(9-chloro-7-(4-flurophenyl)-2-methyl-3-oxo-3,5-dihydro-2H-benzo[c]pyrido[3,4-e]azepin-10-yl)ethylsulfonamide]",2 nM,1 nM,3 nM,∞,–,∞,–,108%,1009,771 ng·h/mL,729 ng·h/mL,3.5 h,10.9 mL/min/kg,2.72 h,2.34 L/kg,3330 ng·h/mL,3300 ng·h/mL,0.5 h,3.84 h,–
"CCS(=O)(=O)Cc1ccc2c(c1)-c1cn(C)c(=O)cc1N(C)N=C2c1ccc(F)cc1 [Compound 4078, 10-((ethylsulfonyl)methyl)-7-(4-flurophenyl)-2,5-dimethyl-2,5-dihydro-3H-benzo[e]pyrido[4,3-c][1,2]diazepin-3-ketone]",5 nM,2 nM,14 nM,727.04 min,2.39 mL/min/kg,195.55 min,27.9 mL/min/kg,–,–,–,–,–,–,–,–,–,–,–,–,–
